“Also recorded” adds a separate entry of the source.
Columns and labels:
[1] = system: bovine adrenal medullary microvascular endothelial cells; test: Capillary endothelial cell growth and proliferation (cell count in hemacytometer); assay type: cell-based
Protocol: Cells in the amount of 2.0×10^4 were seeded per well in 24-well clusters in 1 ml complete EMEM containing 10% (v/v) serum and allowed to grow for 72 hours. Media were removed and the cells were washed twice with phosphate-buffer saline, pH 7.4 (PBS). Cells were synchronized by incubating for 48 hours in 2 mM hydroxyurea in serum-free EMEM with glutamine (2 mM) and one-third of penicillin-streptomycin used in a regular culture condition, followed by incubating 24 hours in serum-free EMEM, as discussed in CAO et al., “Modified Method of Mammalian Cell Synchronization Improves Yield and Degree of Synchronization”, Exp. Cell Res., 193:405-410 (1991), the disclosure of which is herein incorporated by reference in its entirety.
For proliferation assay, cells were trypsinized and counted in a hemacytometer. Viability of cells was determined by trypan blue (0.4% (v/v)) exclusion. Statistical analysis was carried out by StatView II software (Macintosh). Quantitation of cellular differentiation was carried out by observing under a Nikon AlphaShot inverted microscope, and counting the number of capillary lumen-like structures in five randomly selected fields per sample.
Synchronized cells, as described in Example 1, were cultured at 37° C. in complete EMEM containing fetal bovine serum (1% (v/v), 2% (v/v), or 10% (v/v), or complete EMEM with 2% (v/v) fetal bovine serum containing 1 ng/ml −100 ng/ml of bFGF/FGF-2, or containing 0.5 μg/ml to 5.0 μg/ml tunicamycin (lot number 10922120-07 from Boehringer-Mannheim, Indianapolis, Ind.). In each case, the cellular growth and proliferation was monitored by trypan blue exclusion, by counting the cell number, and by their ability to process through the cell cycle by flow cytometry.
Proliferation and Differentiation of Capillary Endothelial Cells: 2.0×10^4 cells were seeded per well in 24-well clusters in 1 ml complete EMEM containing 10% (v/v) serum and allowed to grow for 72 hours. Media were removed and the cells were washed twice with phosphate-buffer saline, pH 7.4 (PBS). […] Cells were routinely monitored by light microscopy. For proliferation assay, cells were trypsinized and counted in a hemacytometer. Viability of cells was determined by trypan blue (0.4% (v/v)) exclusion. […] Quantitation of cellular differentiation was carried out by observing under a Nikon AlphaShot inverted microscope, and counting the number of capillary lumen-like structures in five randomly selected fields per sample. The results were expressed as percent of its corresponding control after normalization of cell numbers. Analysis of Cell Cycle by Flow Cytometry: Assessment of the cell cycle was determined by propidium iodide staining of fixed cell nuclei followed by flow cytometry in a FacSort (Beckton Dickinson) according to the method of Krishan (1975) as modified by Vindelov (1977), as discussed in KRISHAN, “Rapid Flow Cytometric Analysis of Mammalian Cell Cycle by Propidium Iodide Staining”, J. Cell Biol. 66:188-195 (1975); and VINDELOV, “Flow Cytometric Analysis of Nuclear DNA in Cells from Solid Tumors and Cell Suspensions”, Virchows Arch (B), 24:227-231 (1977), the disclosures of which are herein incorporated by reference in their entireties. […]

[2] = system: bovine adrenal medullary microvascular endothelial cells; test: Recovery of endothelial cells after tunicamycin treatment (parental line); assay type: cell-based
Protocol: If the behavior of tunicamycin observed here is truly anti-angiogenic and is not due to cytotoxicity then cells must recover following a tunicamycin treatment that is shorter in duration, and the concentrations are moderate. […] On the other hand, the recovery was quantitative from a 24 hour exposure to tunicamycin at all concentrations (data not shown).

[3] = system: tunicamycin sensitive clone JMEC; test: Apoptosis and recovery in the tunicamycin sensitive cell clone; assay type: cell-based, bovine
Description: To understand the precise molecular mechanism of tunicamycin induced apoptosis of capillary endothelial cells, a cell clone was isolated from the parental culture that was maintained in a serum-free media for six weeks following synchronization. The morphology of these cells and their growth profile appear quite different. For example, the shapes are more spindle-like, resembling Kaposi's Sarcoma lesions endothelial cells, as disclosed in FIORELLI et al., “Cytokines from Activated T Cells Induce Normal Endothelial Cells to Acquire the Phenotypic and Functional Features of AIDS-Kaposi's Sarcoma Spindle Cells”, J. Clin. Invest., 95:1723-1734 (1995), the disclosure of which is herein incorporated by reference in its entirety. The cells undergo two-population doubling in 2% (v/v) fetal bovine serum, differentiate in 5 days, and complete one cell cycle in approximately 56 hours (FIG. 4).
There was no recovery after exposing the cells to 1 μg/ml-10 μg/ml tunicamycin for 72 hours or more (not all data shown).

protein N-glycosylation = conditions: control cells and isoproterenol-treated cells, BANERJEE et al. (1993); cited from earlier work
[4] = 1 μg/ml tunicamycin for 48 hours
[5] = 10 μg/ml tunicamycin for 48 hours

## tunicamycin
[1]; 1 μg/ml tunicamycin, 2% (v/v) serum, monitored up to 5 days
  effect on cell number / proliferation: reduced the cell proliferation; also recorded: number of cells started declining; also recorded: started declining, and almost disappeared
[1]; tunicamycin 0.5-5.0 μg/ml
  reversibility of growth reduction: reversible
[2]; 10 ng/ml tunicamycin for 48 hours
  recovery of cells in 5 days: full recovery
[2]; [4]
  recovery of cells: approximately 40%
[2]; [5]
  recovery of cells: 12%
[2]; 24 hour exposure to tunicamycin at all concentrations (data not shown)
  recovery of cells: quantitative
[2]; tunicamycin for 72 hours or longer at 1 μg/ml or 10 μg/ml
  recovery of cells: never recovered
[3]; 10 ng/ml in clone versus parental cells
  concentration for apoptosis less than needed for parental cells: 100 fold
[3]; 10 ng/ml tunicamycin for 24 hours
  cells recovered in 5 days: approximately 60%
[3]; 10 ng/ml tunicamycin, 32 hours
  apoptosis of the sensitive clone: undergoes apoptosis
[3]; [4]
  cells recovered in 5 days: recovered similarly
[3]; 1 μg/ml-10 μg/ml tunicamycin for 72 hours or more
  recovery of cells: no recovery
[3]; [5]
  cells recovered: less than 20%
Protein N-glycosylation
  glycosylation: reduced glycosylation

From patent US7361643B2, “Methods for inhibiting angiogenesis” (University of Puerto Rico, priority 2000, dated 2008)
